# Measurements as given in PMC10893357 (Viruses, 2024).
# “Also recorded” adds a separate entry of the source.
# Legend:
# [1] = target: T1, SARS-CoV-2 3CL^pro (Severe acute respiratory syndrome coronavirus 2, UniProt P0DTD1); assay: SARS-CoV-2 3CLpro enzymatic inhibition assay (FRET peptide substrate); format: biochemical
# [2] = target: T1, SARS-CoV-2 3CL^pro; assay: Kinetic parameters of 3CLpro reaction with inhibitor; format: biochemical; conditions: maximum reaction rate of 3CLpro with inhibitor at its IC50
Structure (SMILES),IC50 [1],activity against 3CLpro (in words) [1],Vmax [2]
"CC(=O)C1=C(O)C=C2Oc3c(C(C)=O)c(O)c(C)c(O)c3[C@@]2(C)C1=O [(+)-1, (R)-(+)-Usnic acid, reference compound]",> 200 µM,does not inhibit 3CL^pro,–
CC(=O)C1=C(O)C=C2Oc3c(-c4csc(N/N=C/c5ccsc5)n4)c(O)c(C)c(O)c3[C@@]2(C)C1=O [(+)-3a],51 ± 6.33 µM,–,–
CC(=O)C1=C(O)C=C2Oc3c(-c4csc(N/N=C/c5cccs5)n4)c(O)c(C)c(O)c3[C@@]2(C)C1=O [(+)-3b],49.7 ± 6.12 µM,–,–
CC(=O)C1=C(O)C=C2Oc3c(-c4csc(N/N=C/c5sccc5C)n4)c(O)c(C)c(O)c3[C@@]2(C)C1=O [(+)-3c],34 ± 4.45 µM,–,–
CC(=O)C1=C(O)C=C2Oc3c(-c4csc(N/N=C/c5ccc(C)s5)n4)c(O)c(C)c(O)c3[C@@]2(C)C1=O [(+)-3d],40.7 ± 5.11 µM,moderately inhibited the protease,–
CC(=O)C1=C(O)C=C2Oc3c(-c4csc(N/N=C/c5ccc(Br)s5)n4)c(O)c(C)c(O)c3[C@@]2(C)C1=O [(+)-3e],28.2 ± 1.41 µM,the highest but not strong activity,334.26 ± 39.08 nM/s
CC(=O)C1=C(O)C=C2Oc3c(-c4csc(N/N=C/c5cc(Br)cs5)n4)c(O)c(C)c(O)c3[C@@]2(C)C1=O [(+)-3f],50.2 ± 6.75 µM,–,–
CC(=O)C1=C(O)C=C2Oc3c(-c4csc(N/N=C/c5ccc([N+](=O)[O-])s5)n4)c(O)c(C)c(O)c3[C@@]2(C)C1=O [(+)-3g],> 200 µM,showed no activity at all; also recorded: did not show this activity,–
"CC(=O)C1=C(O)C=C2Oc3c(C(C)=O)c(O)c(C)c(O)c3[C@]2(C)C1=O [(−)-1, (S)-(−)-Usnic acid, reference compound]",> 200 µM,–,–
CC(=O)C1=C(O)C=C2Oc3c(-c4csc(N/N=C/c5ccsc5)n4)c(O)c(C)c(O)c3[C@]2(C)C1=O [(−)-3a],41.6 ± 4.97 µM,–,–
CC(=O)C1=C(O)C=C2Oc3c(-c4csc(N/N=C/c5cccs5)n4)c(O)c(C)c(O)c3[C@]2(C)C1=O [(−)-3b],40.4 ± 5.65 µM,–,–
CC(=O)C1=C(O)C=C2Oc3c(-c4csc(N/N=C/c5sccc5C)n4)c(O)c(C)c(O)c3[C@]2(C)C1=O [(−)-3c],48 ± 6.21 µM,–,–
CC(=O)C1=C(O)C=C2Oc3c(-c4csc(N/N=C/c5ccc(C)s5)n4)c(O)c(C)c(O)c3[C@]2(C)C1=O [(−)-3d],41 ± 5.89 µM,moderately inhibited the protease,–
CC(=O)C1=C(O)C=C2Oc3c(-c4csc(N/N=C/c5ccc(Br)s5)n4)c(O)c(C)c(O)c3[C@]2(C)C1=O [(−)-3e],85.8 ± 10.1 µM,almost three times less effectively,–
CC(=O)C1=C(O)C=C2Oc3c(-c4csc(N/N=C/c5cc(Br)cs5)n4)c(O)c(C)c(O)c3[C@]2(C)C1=O [(−)-3f],72.8 ± 9.55 µM,–,–
CC(=O)C1=C(O)C=C2Oc3c(-c4csc(N/N=C/c5ccc([N+](=O)[O-])s5)n4)c(O)c(C)c(O)c3[C@]2(C)C1=O [(−)-3g],> 200 µM,showed no activity at all,–
